Target: DYRK1A (Homo sapiens (Human), UniProt Q13627)
Test: DYRK1A activity Tau assay: pSer396 Tau in SH-SY5Y cells by ELISA / western blot
Assay type: cell-based
Settings: overnight (16-18 h) exposure
From the text: In another example, in vitro assays for DYRK1A biological activity may be used, e.g. regulation of microtubule-associated protein tau (MAPT/Tau) phosphorylation in neuronal cell line such as the human SH-SY5Y neuroblastoma cell line. Assays for DYRK1a-regulated level of phosphorylation can include monitoring levels of basal pSer396 Tau, which can be measured, for example, by serial dilutions of a candidate inhibitor composition using a ten micromolar top concentration and detected by ELISA or Western Blotting. An exemplary assay for DYRK-1a-regulated phosphorylation uses the SH-SY5Y cells cultured in a 96 well plate format for a period of time sufficient to stabilize microtubules and Tau phosphorylation, usually at least 2 days, then treated with a 1/3 serial dilution of compounds overnight and lysed. The cell lysate is resolved by SDS PAGE, then transferred to nitrocellulose and probed with an antibody specific for pSer396 Tau.
In a further example, the activity of a candidate compound can be measured by ELISA by adding the lysate mentioned above onto total Tau-coated plates and detected with a specific pSer396 antibody.

Compound	EC50
O=C(NCCN1CCCCC1)c1n[nH]c2ccc(-c3cccc(F)c3F)cc12 [Compound 1266, 5-(2,3-Difluorophenyl)-N-(2-(piperidin-1-yl)ethyl)-1H-indazole-3-carboxamide]	75 nM
O=C(Nc1cccc(C(F)(F)F)n1)c1n[nH]c2ccc(-c3cccnc3)cc12 [Compound 42, 5-(Pyridin-3-yl)-N-(6-(trifluoromethyl)pyridin-2-yl)-1H-indazole-3-carboxamide]	115 nM
CN1CCC(NC(=O)c2n[nH]c3ccc(-c4cccc(F)c4)cc23)CC1 [Compound 15, 5-(3-Fluorophenyl)-N-(1-methylpiperidin-4-yl)-1H-indazole-3-carboxamide]	324 nM
CC(C)(C)NC(=O)c1n[nH]c2ccc(-c3cncc(CN4CCC4)c3)cc12 [Compound 1206, 5-(5-(Azetidin-1-ylmethyl)pyridin-3-yl)-N-(tert-butyl)-1H-indazole-3-carboxamide]	207 nM
CN(C)Cc1cncc(-c2ccc3[nH]nc(C(=O)NC(C)(C)C)c3c2)c1 [Compound 1198, N-(tert-Butyl)-5-(5-((dimethylamino)methyl)pyridin-3-yl)-1H-indazole-3-carboxamide]	491 nM
CC(C)NC(=O)c1n[nH]c2ccc(-c3cncnc3)cc12 [Compound 1248, N-Isopropyl-5-(pyrimidin-5-yl)-1H-indazole-3-carboxamide]	174 nM
O=C(NC1(c2ccccc2)CC1)c1n[nH]c2ccc(-c3cncc(CN4CCCC4)c3)cc12 [Compound 34, N-(1-Phenylcyclopropyl)-5-(5-(pyrrolidin-1-ylmethyl)pyridin-3-yl)-1H-indazole-3-carboxamide]	233 nM
CC(C)(C)CN1CCC(NC(=O)c2n[nH]c3ccc(-c4cncc(F)c4)cc23)CC1 [Compound 1315, 5-(5-Fluoropyridin-3-yl)-N-(1-neopentylpiperidin-4-yl)-1H-indazole-3-carboxamide]	870 nM
O=C(NC1(c2ccccc2)CC1)c1n[nH]c2ccc(-c3cccnc3)cc12 [Compound 32, N-(1-Phenylcyclopropyl)-5-(pyridin-3-yl)-1H-indazole-3-carboxamide]	279 nM
CC(C)CNC(=O)c1n[nH]c2ccc(-c3ccc(F)nc3)cc12 [Compound 1335, 5-(6-Fluoropyridin-3-yl)-N-isobutyl-1H-indazole-3-carboxamide]	62 nM
CC(C)NC(=O)c1n[nH]c2ccc(-c3cccc(F)c3F)cc12 [Compound 140, 5-(2,3-Difluorophenyl)-N-isopropyl-1H-indazole-3-carboxamide]	576 nM
CC(C)N1CCC(NC(=O)c2n[nH]c3ccc(-c4cncc(C(F)F)c4)cc23)CC1 [Compound 1303, 5-(5-(Difluoromethyl)pyridin-3-yl)-N-(1-isopropylpiperidin-4-yl)-1H-indazole-3-carboxamide]	117 nM
O=C(Nc1ccc(C(F)(F)F)cn1)c1n[nH]c2ccc(-c3cccnc3)cc12 [Compound 40, 5-(Pyridin-3-yl)-N-(5-(trifluoromethyl)pyridin-2-yl)-1H-indazole-3-carboxamide]	372 nM
CC(C)(C)NC(=O)c1n[nH]c2ccc(-c3cccnc3)cc12 [Compound 1253, N-(tert-Butyl)-5-(pyridin-3-yl)-1H-indazole-3-carboxamide]	150 nM
O=C(NCc1cccc(F)c1)c1n[nH]c2ccc(-c3cc(F)cc(CN4CCCCC4)c3)cc12 [Compound 30, 5-(3-Fluoro-5-(piperidin-1-ylmethyl)phenyl)-N-(3-fluorobenzyl)-1H-indazole-3-carboxamide]	120 nM
CCN(CC)Cc1cncc(-c2ccc3[nH]nc(C(=O)NC(C)(C)C)c3c2)c1 [Compound 1252, N-(tert-Butyl)-5-(5-((diethylamino)methyl)pyridin-3-yl)-1H-indazole-3-carboxamide]	421 nM
CN1CCC(NC(=O)c2n[nH]c3ccc(-c4ccccc4)cc23)CC1 [Compound 14, N-(1-Methylpiperidin-4-yl)-5-phenyl-1H-indazole-3-carboxamide]	1150 nM
CC(C)NC(=O)c1n[nH]c2ccc(-c3cncc4ccccc34)cc12 [Compound 1249, N-Isopropyl-5-(isoquinolin-4-yl)-1H-indazole-3-carboxamide]	148 nM

Now those with a lower EC50, led by results:

EC50	Compound
1 nM	O=C(Nc1cnc(C(F)(F)F)nc1)c1n[nH]c2ccc(-c3cncc(CN4CCCCC4)c3)cc12 [Compound 1116, 5-(5-(Piperidin-1-ylmethyl)pyridin-3-yl)-N-(2-(trifluoromethyl)pyrimidin-5-yl)-1H-indazole-3-carboxamide]
1 nM	O=C(Nc1c(F)cncc1F)c1n[nH]c2ccc(-c3cncc(CN4CCCCC4)c3)cc12 [Compound 79, N-(3,5-Difluoropyridin-4-yl)-5-(5-(piperidin-1-ylmethyl)pyridin-3-yl)-1H-indazole-3-carboxamide]
10 nM	CN(C)Cc1ccc(NC(=O)c2n[nH]c3ccc(-c4cccnc4)cc23)cc1 [Compound 1324, N-(4-((Dimethylamino)methyl)phenyl)-5-(pyridin-3-yl)-1H-indazole-3-carboxamide]
10 nM	O=C(Nc1ccc(C(F)(F)F)cn1)c1n[nH]c2ccc(-c3cncc(CN4CCCCC4)c3)cc12 [Compound 61, 5-(5-(Piperidin-1-ylmethyl)pyridin-3-yl)-N-(5-(trifluoromethyl)pyridin-2-yl)-1H-indazole-3-carboxamide]
29 nM	CN1CC2(CCC(NC(=O)c3n[nH]c4ccc(-c5cncc(F)c5)cc34)CC2)C1 [Compound 1289, 5-(5-Fluoropyridin-3-yl)-N-(2-methyl-2-azaspiro[3.5]nonan-7-yl)-1H-indazole-3-carboxamide]
6 nM	O=C(NC1CCN(CCF)CC1)c1n[nH]c2ccc(-c3cccnc3)cc12 [Compound 1180, N-(1-(2-Fluoroethyl)piperidin-4-yl)-5-(pyridin-3-yl)-1H-indazole-3-carboxamide]
29 nM	CN1CCC(NC(=O)c2n[nH]c3ccc(-c4cccc(F)c4F)cc23)CC1 [Compound 20, 5-(2,3-Difluorophenyl)-N-(1-methylpiperidin-4-yl)-1H-indazole-3-carboxamide]
7 nM	CC#CCN1CCC(NC(=O)c2n[nH]c3ccc(-c4cccnc4)cc23)CC1 [Compound 369, N-(1-(But-2-yn-1-yl)piperidin-4-yl)-5-(pyridin-3-yl)-1H-indazole-3-carboxamide]
4 nM	O=C(Nc1ccnc(N2CCCC2)c1)c1n[nH]c2ccc(-c3cccnc3)cc12 [Compound 102, 5-(Pyridin-3-yl)-N-(2-(pyrrolidin-1-yl)pyridin-4-yl)-1H-indazole-3-carboxamide]
25 nM	CC(C)NC(=O)c1n[nH]c2ccc(-c3cncc(N4CCCC4)c3)cc12 [Compound 1245, N-Isopropyl-5-(5-(pyrrolidin-1-yl)pyridin-3-yl)-1H-indazole-3-carboxamide]
39 nM	CCN1CCC(NC(=O)c2n[nH]c3ccc(-c4cncc(Cl)c4)cc23)CC1 [Compound 1291, 5-(5-Chloropyridin-3-yl)-N-(1-ethylpiperidin-4-yl)-1H-indazole-3-carboxamide]
20 nM	O=C(Nc1cc(C(F)(F)F)ccn1)c1n[nH]c2ccc(-c3cncc(CN4CCCCC4)c3)cc12 [Compound 60, 5-(5-(Piperidin-1-ylmethyl)pyridin-3-yl)-N-(4-(trifluoromethyl)pyridin-2-yl)-1H-indazole-3-carboxamide]
7 nM	CCN(CC)Cc1cncc(-c2ccc3[nH]nc(C(=O)NC4CC4)c3c2)c1 [Compound 1270, N-Cyclopropyl-5-(5-((diethylamino)methyl)pyridin-3-yl)-1H-indazole-3-carboxamide]
52 nM	O=C(NC1Cc2ccccc2C1)c1n[nH]c2ccc(-c3cccnc3)cc12 [Compound 22, N-(2,3-Dihydro-1H-inden-2-yl)-5-(pyridin-3-yl)-1H-indazole-3-carboxamide]
28 nM	O=C(NC1Cc2ccccc2C1)c1n[nH]c2ccc(-c3cncc(CN4CCCC4)c3)cc12 [Compound 25, N-(2,3-Dihydro-1H-inden-2-yl)-5-(5-(pyrrolidin-1-ylmethyl)pyridin-3-yl)-1H-indazole-3-carboxamide]
20 nM	CC[C@H](C)NC(=O)c1n[nH]c2ccc(-c3cccnc3)cc12 [Compound 1258, (S)—N-(sec-butyl)-5-(pyridin-3-yl)-1H-indazole-3-carboxamide]
9 nM	CC(C)CNC(=O)c1n[nH]c2ccc(-c3cccnc3)cc12 [Compound 1254, N-Isobutyl-5-(pyridin-3-yl)-1H-indazole-3-carboxamide]
47 nM	CC(C)CN1CCC(NC(=O)c2n[nH]c3ccc(-c4cncc(Cl)c4)cc23)CC1 [Compound 1307, 5-(5-Chloropyridin-3-yl)-N-(1-isobutylpiperidin-4-yl)-1H-indazole-3-carboxamide]
2 nM	O=C(Nc1ccc(F)cn1)c1n[nH]c2ccc(-c3cncc(CN4CCCCC4)c3)cc12 [Compound 57, N-(5-Fluoropyridin-2-yl)-5-(5-(piperidin-1-ylmethyl)pyridin-3-yl)-1H-indazole-3-carboxamide]
1 nM	O=C(Nc1ccnc(N2CCCCC2)c1)c1n[nH]c2ccc(-c3cncc(CN4CCCCC4)c3)cc12 [Compound 101, N-(2-(Piperidin-1-yl)pyridin-4-yl)-5-(5-(piperidin-1-ylmethyl)pyridin-3-yl)-1H-indazole-3-carboxamide]
43 nM	CC(C)NC(=O)c1n[nH]c2ccc(-c3cncc(CN4CCC4)c3)cc12 [Compound 128, 5-(5-(Azetidin-1-ylmethyl)pyridin-3-yl)-N-isopropyl-1H-indazole-3-carboxamide]

Reference: patent publication US10669240B2, “5-substituted indazole-3-carboxamides and preparation and use thereof” (Samumed, LLC, priority 2014, dated 2020)
